Measured values as given in ChEMBL document CHEMBL6114953, “De novo discovery of cyclic peptide inhibitors of IL-11 signaling” (Bioorg Med Chem, 2025).
Where a SMILES comes first, the peptide text is derived from it. Bridges are numbered along the chain shown (N, C = ends). [ ]: non-standard residue; d: D form. Nle = CCCC[C@H](N)C(=O)O

assay: Inhibition of his-tagged recombinant human IL-11 (22 to 199 residues) expressed in HEK293 cells/biotinylated recombinant human IL-11Ralpha (24 to 370 residues) expressed in HEK293 cells incubated for 1 hr by AlphaLISA assay; assay type: cell-based

Compound	Ki [nM]
CSCC[C@@H]1NC(=O)[C@H](Cc2c[nH]cn2)NC(=O)[C@H](CO)NC(=O)[C@@H](NC(=O)[C@H](Cc2c[nH]c3ccccc23)NC(=O)[C@H](Cc2ccc(O)cc2)NC(=O)[C@H](Cc2ccccc2)NC(C)=O)CSSC[C@@H](C(=O)N[C@@H](Cc2c[nH]c3ccccc23)C(=O)N[C@@H](CCCNC(=N)N)C(N)=O)NC(=O)[C@H](C(C)C)NC(=O)[C@H]([C@@H](C)O)NC(=O)[C@H]([C@@H](C)O)NC(=O)[C@H](Cc2ccc(O)cc2)NC(=O)[C@H](Cc2ccc(O)cc2)NC1=O (Ac-FYWCSHMYYTTVCWR-NH2; disulfide 4-13)	330
CSCC[C@@H]1NC(=O)[C@H](Cc2c[nH]cn2)NC(=O)[C@H](CO)NC(=O)[C@@H](NC(C)=O)CSSC[C@@H](C(=O)N[C@@H](Cc2c[nH]c3ccccc23)C(=O)N[C@@H](CCCNC(=N)N)C(N)=O)NC(=O)[C@H](C(C)C)NC(=O)[C@H]([C@@H](C)O)NC(=O)[C@H]([C@@H](C)O)NC(=O)[C@H](Cc2ccc(O)cc2)NC(=O)[C@H](Cc2ccc(O)cc2)NC1=O (Ac-CSHMYYTTVCWR-NH2; disulfide 1-10)	> 28000
CC(=O)NCC(=O)N[C@@H](Cc1c[nH]c2ccccc12)C(=O)N[C@H]1CSSC[C@@H](C(=O)N[C@@H](CC(C)C)C(=O)N[C@@H](CCCNC(=N)N)C(N)=O)NC(=O)[C@H](Cc2c[nH]c3ccccc23)NC(=O)[C@H](C)NC(=O)[C@H](CO)NC(=O)[C@H](Cc2ccc(O)cc2)NC(=O)[C@H](Cc2ccc(O)cc2)NC(=O)CNC(=O)[C@H](CCCCN)NC(=O)[C@H](Cc2c[nH]c3ccccc23)NC1=O (Ac-GWCWKGYYSAWCLR-NH2; disulfide 3-12)	1100
CC(C)C[C@@H]1NC(=O)[C@H](Cc2c[nH]c3ccccc23)NC(=O)[C@@H](NC(=O)[C@H](Cc2ccccc2)NC(=O)[C@H](CCC(=O)O)NC(=O)[C@@H](NC(=O)[C@@H](NC(=O)[C@H](CCC(=O)O)NC(=O)[C@H](C)N)[C@@H](C)O)C(C)C)CSSC[C@@H](C(N)=O)NC(=O)[C@H](CCC(N)=O)NC(=O)[C@H](CCC(=O)O)NC(=O)[C@H](Cc2c[nH]c3ccccc23)NC(=O)[C@H](Cc2c[nH]c3ccccc23)NC(=O)[C@H](CCC(N)=O)NC(=O)[C@H](Cc2ccccc2)NC(=O)[C@@H]2CCCN2C1=O (H-AETVEFCWLPFQWWEQC-NH2; disulfide 7-17)	350
CSCC[C@@H]1NC(=O)[C@H](Cc2c[nH]cn2)NC(=O)[C@H](CO)NC(=O)[C@@H](NC(=O)[C@H](Cc2c[nH]c3ccccc23)NC(=O)[C@H](Cc2ccc(O)cc2)NC(=O)[C@H](Cc2ccccc2)NC(=O)[C@H](CCC(=O)O)NC(=O)[C@@H](NC(=O)[C@@H](NC(=O)[C@H](CCC(=O)O)NC(=O)[C@H](C)N)[C@@H](C)O)C(C)C)CSSC[C@@H](C(=O)N[C@@H](Cc2c[nH]c3ccccc23)C(=O)N[C@@H](CCCNC(=N)N)C(N)=O)NC(=O)[C@H](C(C)C)NC(=O)[C@H]([C@@H](C)O)NC(=O)[C@H]([C@@H](C)O)NC(=O)[C@H](Cc2ccc(O)cc2)NC(=O)[C@H](Cc2ccc(O)cc2)NC1=O (H-AETVEFYWCSHMYYTTVCWR-NH2; disulfide 9-18)	3900
CC[C@H](C)[C@@H]1NC(=O)[C@H](Cc2c[nH]cn2)NC(=O)[C@H](Cc2c[nH]cn2)NC(=O)[C@H](C)NC(=O)[C@@H](NC(=O)[C@H](Cc2ccccc2)NC(=O)[C@H](CCC(=O)O)NC(=O)[C@@H](NC(=O)[C@@H](NC(=O)[C@H](CCC(=O)O)NC(=O)[C@H](C)N)[C@@H](C)O)C(C)C)CSSC[C@@H](C(N)=O)NC(=O)[C@H](Cc2c[nH]c3ccccc23)NC(=O)[C@H](Cc2c[nH]c3ccccc23)NC(=O)[C@H](Cc2c[nH]c3ccccc23)NC(=O)[C@H](C)NC(=O)[C@H](Cc2ccc(O)cc2)NC1=O (H-AETVEFCAHHIYAWWWC-NH2; disulfide 7-17)	2400
CSCC[C@@H]1NC(=O)[C@H](Cc2c[nH]cn2)NC(=O)[C@H](CO)NC(=O)[C@@H](NC(=O)[C@H](Cc2c[nH]c3ccccc23)NC(=O)[C@H](Cc2ccc(O)cc2)NC(=O)[C@H](Cc2ccccc2)NC(=O)[C@H](CCC(N)=O)NC(=O)[C@@H](NC(=O)[C@@H](NC(C)=O)[C@@H](C)O)C(C)C)CSSC[C@@H](C(=O)N[C@@H](Cc2c[nH]c3ccccc23)C(=O)N[C@@H](CCCNC(=N)N)C(N)=O)NC(=O)[C@H](C(C)C)NC(=O)[C@H]([C@@H](C)O)NC(=O)[C@H]([C@@H](C)O)NC(=O)[C@H](Cc2ccc(O)cc2)NC(=O)[C@H](Cc2ccc(O)cc2)NC1=O (Ac-TVQFYWCSHMYYTTVCWR-NH2; disulfide 7-16)	900
CSCC[C@@H]1NC(=O)[C@H](Cc2c[nH]cn2)NC(=O)[C@H](CO)NC(=O)[C@@H](NC(=O)[C@H](Cc2c[nH]c3ccccc23)NC(=O)[C@H](Cc2ccc(O)cc2)NC(=O)[C@H](Cc2ccccc2)NC(=O)[C@H](CCC(N)=O)NC(=O)[C@@H](NC(C)=O)C(C)C)CSSC[C@@H](C(=O)N[C@@H](Cc2c[nH]c3ccccc23)C(=O)N[C@@H](CCCNC(=N)N)C(N)=O)NC(=O)[C@H](C(C)C)NC(=O)[C@H]([C@@H](C)O)NC(=O)[C@H]([C@@H](C)O)NC(=O)[C@H](Cc2ccc(O)cc2)NC(=O)[C@H](Cc2ccc(O)cc2)NC1=O (Ac-VQFYWCSHMYYTTVCWR-NH2; disulfide 6-15)	700
CSCC[C@@H]1NC(=O)[C@H](Cc2c[nH]cn2)NC(=O)[C@H](CO)NC(=O)[C@@H](NC(=O)[C@H](Cc2c[nH]c3ccccc23)NC(=O)[C@H](Cc2ccc(O)cc2)NC(=O)[C@H](Cc2ccccc2)NC(=O)[C@H](CCC(N)=O)NC(C)=O)CSSC[C@@H](C(=O)N[C@@H](Cc2c[nH]c3ccccc23)C(=O)N[C@@H](CCCNC(=N)N)C(N)=O)NC(=O)[C@H](C(C)C)NC(=O)[C@H]([C@@H](C)O)NC(=O)[C@H]([C@@H](C)O)NC(=O)[C@H](Cc2ccc(O)cc2)NC(=O)[C@H](Cc2ccc(O)cc2)NC1=O (Ac-QFYWCSHMYYTTVCWR-NH2; disulfide 5-14)	270
CC(C)C[C@@H]1NC(=O)[C@H](CCC(=O)O)NC(=O)[C@H](Cc2ccccc2)NC(=O)[C@H](CCC(N)=O)NC(=O)[C@@H]2CCCN2C(=O)[C@H](Cc2c[nH]c3ccccc23)NC(=O)[C@H](C(C)C)NC(=O)[C@H](Cc2ccc(O)cc2)NC(=O)[C@@H](NC(=O)[C@H](Cc2ccccc2)NC(=O)[C@H](CCC(=O)O)NC(=O)[C@@H](NC(=O)[C@@H](NC(=O)[C@H](CCC(=O)O)NC(=O)[C@H](C)N)[C@@H](C)O)C(C)C)CSSC[C@@H](C(N)=O)NC(=O)[C@H](C(C)C)NC1=O (H-AETVEFCYVWPQFELVC-NH2; disulfide 7-17)	310
CCCC[C@@H]1NC(=O)[C@H](Cc2c[nH]cn2)NC(=O)[C@H](CO)NC(=O)[C@@H](NC(=O)[C@H](Cc2c[nH]c3ccccc23)NC(=O)[C@H](Cc2ccc(O)cc2)NC(=O)[C@H](Cc2ccccc2)NC(=O)[C@H](CCC(N)=O)NC(=O)[C@@H](NC(=O)[C@@H](NC(=O)[C@H](CCC(N)=O)NC(=O)[C@H](C)N)[C@@H](C)O)C(C)C)CSSC[C@@H](C(=O)N[C@@H](Cc2c[nH]c3ccccc23)C(=O)N[C@@H](CCCNC(=N)N)C(N)=O)NC(=O)[C@H](C(C)C)NC(=O)[C@H]([C@@H](C)O)NC(=O)[C@H]([C@@H](C)O)NC(=O)[C@H](Cc2ccc(O)cc2)NC(=O)[C@H](Cc2ccc(O)cc2)NC1=O (H-AQTVQFYWCSH[Nle]YYTTVCWR-NH2; disulfide 9-18)	260
CC(C)C[C@@H]1NC(=O)CNC(=O)[C@H](Cc2ccccc2)NC(=O)[C@H](Cc2c[nH]c3ccccc23)NC(=O)[C@H](CCC(=O)O)NC(=O)[C@H](Cc2c[nH]c3ccccc23)NC(=O)[C@H]([C@@H](C)O)NC(=O)[C@@H]2CCCN2C(=O)[C@H](Cc2c[nH]cn2)NC(=O)[C@@H](NC(=O)[C@H](Cc2ccccc2)NC(=O)[C@H](CCC(=O)O)NC(=O)[C@@H](NC(=O)[C@@H](NC(=O)[C@H](CCC(=O)O)NC(=O)[C@H](C)N)[C@@H](C)O)C(C)C)CSSC[C@@H](C(N)=O)NC1=O (H-AETVEFCHPTWEWFGLC-NH2; disulfide 7-17)	2400
CSCC[C@@H]1NC(=O)[C@H](Cc2c[nH]cn2)NC(=O)[C@H](CO)NC(=O)[C@@H](NC(=O)[C@H](Cc2c[nH]c3ccccc23)NC(=O)[C@H](Cc2ccc(O)cc2)NC(=O)[C@H](Cc2ccccc2)NC(=O)[C@H](CCC(N)=O)NC(=O)[C@@H](NC(=O)[C@@H](NC(=O)[C@H](CCC(N)=O)NC(=O)[C@H](C)N)[C@@H](C)O)C(C)C)CSSC[C@@H](C(=O)N[C@@H](Cc2c[nH]c3ccccc23)C(=O)N[C@@H](CCCNC(=N)N)C(N)=O)NC(=O)[C@H](C(C)C)NC(=O)[C@H]([C@@H](C)O)NC(=O)[C@H]([C@@H](C)O)NC(=O)[C@H](Cc2ccc(O)cc2)NC(=O)[C@H](Cc2ccc(O)cc2)NC1=O (H-AQTVQFYWCSHMYYTTVCWR-NH2; disulfide 9-18)	180
CSCC[C@@H]1NC(=O)[C@H](Cc2c[nH]cn2)NC(=O)[C@H](CO)NC(=O)[C@@H](NC(=O)[C@H](Cc2c[nH]c3ccccc23)NC(C)=O)CSSC[C@@H](C(=O)N[C@@H](Cc2c[nH]c3ccccc23)C(=O)N[C@@H](CCCNC(=N)N)C(N)=O)NC(=O)[C@H](C(C)C)NC(=O)[C@H]([C@@H](C)O)NC(=O)[C@H]([C@@H](C)O)NC(=O)[C@H](Cc2ccc(O)cc2)NC(=O)[C@H](Cc2ccc(O)cc2)NC1=O (Ac-WCSHMYYTTVCWR-NH2; disulfide 2-11)	3200
CC(=O)N[C@H]1CSSC[C@@H](C(N)=O)NC(=O)[C@H](C(C)C)NC(=O)[C@H](Cc2ccc(O)cc2)NC(=O)[C@H](Cc2c[nH]c3ccccc23)NC(=O)[C@H](Cc2c[nH]c3ccccc23)NC(=O)[C@H](Cc2c[nH]cn2)NC(=O)[C@H](Cc2ccc(O)cc2)NC(=O)[C@@H]2CCCN2C(=O)[C@H](CCCCN)NC(=O)[C@H](Cc2c[nH]c3ccccc23)NC1=O (Ac-CWKPYHWWYVC-NH2; disulfide 1-11)	2500
CSCC[C@@H]1NC(=O)[C@H](Cc2c[nH]cn2)NC(=O)[C@H](CO)NC(=O)[C@@H](NC(=O)[C@H](Cc2c[nH]c3ccccc23)NC(=O)[C@H](Cc2ccc(O)cc2)NC(=O)[C@H](Cc2ccccc2)NC(=O)[C@H](CCC(N)=O)NC(=O)[C@@H](NC(=O)[C@@H](NC(=O)[C@H](CCC(N)=O)NC(C)=O)[C@@H](C)O)C(C)C)CSSC[C@@H](C(=O)N[C@@H](Cc2c[nH]c3ccccc23)C(=O)N[C@@H](CCCNC(=N)N)C(N)=O)NC(=O)[C@H](C(C)C)NC(=O)[C@H]([C@@H](C)O)NC(=O)[C@H]([C@@H](C)O)NC(=O)[C@H](Cc2ccc(O)cc2)NC(=O)[C@H](Cc2ccc(O)cc2)NC1=O (Ac-QTVQFYWCSHMYYTTVCWR-NH2; disulfide 8-17)	800
